Experimental data reported in ChEMBL document CHEMBL4725232, “Synthesis and biological activity of new bisbenzofuran-imidazolium salts” (Bioorg Med Chem Lett, 2020).

Columns and labels:
Format in all cases: functional, cell-based
[1] = tested on: HL-60; experiment: Antiproliferative activity against human HL60 cells by MTS assay
[2] = tested on: SMMC-7721; experiment: Antiproliferative activity against human SMMC7721 by MTS assay
[3] = tested on: A549; experiment: Antiproliferative activity against human […] cells by MTS assay
[4] = tested on: MCF7; experiment: Antiproliferative activity against human MCF7 cells by MTS assay
[5] = tested on: SW480; experiment: Antiproliferative activity against human SW480 cells by MTS assay

| IC50 [1] [µM] | IC50 [2] [µM] | IC50 [3] [µM] | IC50 [4] [µM] | IC50 [5] [µM] | Structure (SMILES) |
| --- | --- | --- | --- | --- | --- |
| 2.43 | 6.84 | 7.43 | 1.72 | 0.8 | Cc1n(CC=C(c2cc3ccccc3o2)c2cc3ccccc3o2)c2ccccc2[n+]1CC(=O)c1ccc(Br)cc1 |
| > 20 | > 20 | > 20 | > 20 | > 20 | C(Cn1cnc2ccccc21)=C(c1cc2ccccc2o1)c1cc2ccccc2o1 |
| > 20 | > 20 | > 20 | > 20 | > 20 | Cc1cc2ncn(CC=C(c3cc4ccccc4o3)c3cc4ccccc4o3)c2cc1C |
| 1.73 | 6.05 | 6.46 | 1.63 | 1.43 | O=C(C[n+]1cn(CC=C(c2cc3ccccc3o2)c2cc3ccccc3o2)c2ccccc21)c1ccc(Br)cc1 |
| 1.41 | 1.67 | 1.96 | 1.23 | 1.48 | Cc1n(CC=C(c2cc3ccccc3o2)c2cc3ccccc3o2)c2ccccc2[n+]1CC(=O)c1ccc(-c2ccccc2)cc1 |
| 7.73 | > 20 | > 20 | 7.83 | 6.97 | O=C(C[n+]1ccn(CC=C(c2cc3ccccc3o2)c2cc3ccccc3o2)c1)c1ccc2ccccc2c1 |
| 1.44 | 3.93 | 6.02 | 1.56 | 1.92 | O=C(C[n+]1cn(CC=C(c2cc3ccccc3o2)c2cc3ccccc3o2)c2ccccc21)c1ccccc1 |
| 3.14 | 5.9 | 5.34 | 2.38 | 2.36 | Cc1cc2c(cc1C)[n+](CC(=O)c1ccc3ccccc3c1)cn2CC=C(c1cc2ccccc2o1)c1cc2ccccc2o1 |
| 1.58 | 1.51 | 1.58 | 0.97 | 1.54 | Cc1n(CC=C(c2cc3ccccc3o2)c2cc3ccccc3o2)c2ccccc2[n+]1CC(=O)c1ccc2ccccc2c1 |
| 1.19 | 1.53 | 2.32 | 1.02 | 1.47 | COc1ccc(C(=O)C[n+]2cn(CC=C(c3cc4ccccc4o3)c3cc4ccccc4o3)c3ccccc32)cc1 |
| 1.11 | 1.38 | 1.47 | 0.64 | 0.88 | COc1ccc(C(=O)C[n+]2c(C)n(CC=C(c3cc4ccccc4o3)c3cc4ccccc4o3)c3ccccc32)cc1 |
| 4.33 | 6.38 | 7.08 | 3.42 | 4.3 | Cc1cc2c(cc1C)[n+](CC(=O)c1ccccc1)cn2CC=C(c1cc2ccccc2o1)c1cc2ccccc2o1 |
| 6.27 | 7.81 | 7.42 | 7.05 | 7.93 | Cc1cc2c(cc1C)[n+](CC(=O)c1ccc(Br)cc1)cn2CC=C(c1cc2ccccc2o1)c1cc2ccccc2o1 |
| 6.93 | 9.04 | 7.68 | 8.67 | 6.42 | Cc1cc2c(cc1C)[n+](CC(=O)c1ccc(-c3ccccc3)cc1)cn2CC=C(c1cc2ccccc2o1)c1cc2ccccc2o1 |
| 8.4 | 7.86 | 8.47 | 7.29 | 6.17 | O=C(C[n+]1ccn(CC=C(c2cc3ccccc3o2)c2cc3ccccc3o2)c1)c1ccc(Br)cc1 |
| 1.63 | 1.46 | 1.54 | 1.44 | 1.77 | O=C(C[n+]1cn(CC=C(c2cc3ccccc3o2)c2cc3ccccc3o2)c2ccccc21)c1ccc2ccccc2c1 |
| 1.08 | 1.34 | 3.5 | 0.8 | 0.79 | Cc1n(CC=C(c2cc3ccccc3o2)c2cc3ccccc3o2)c2ccccc2[n+]1CC(=O)c1ccccc1 |
| > 20 | > 20 | > 20 | > 20 | > 20 | COc1ccc(C(=O)C[n+]2ccn(CC=C(c3cc4ccccc4o3)c3cc4ccccc4o3)c2)cc1 |
| 8 | 9.46 | 8.25 | 7.97 | 5.8 | COc1ccc(C(=O)C[n+]2cn(CC=C(c3cc4ccccc4o3)c3cc4ccccc4o3)c3cc(C)c(C)cc32)cc1 |
| 6.95 | > 20 | > 20 | 11.2 | 6.44 | O=C(C[n+]1ccn(CC=C(c2cc3ccccc3o2)c2cc3ccccc3o2)c1)c1ccccc1 |
| 7.25 | 8.04 | 9.05 | 7.57 | 7.2 | O=C(C[n+]1ccn(CC=C(c2cc3ccccc3o2)c2cc3ccccc3o2)c1)c1ccc(-c2ccccc2)cc1 |
| > 20 | > 20 | > 20 | > 20 | > 20 | C(Cn1ccnc1)=C(c1cc2ccccc2o1)c1cc2ccccc2o1 |
| 5.33 | 6.69 | 7.23 | 2.42 | 5.94 | O=C(C[n+]1cn(CC=C(c2cc3ccccc3o2)c2cc3ccccc3o2)c2ccccc21)c1ccc(-c2ccccc2)cc1 |
| > 20 | > 20 | > 20 | > 20 | > 20 | Cc1nc2ccccc2n1CC=C(c1cc2ccccc2o1)c1cc2ccccc2o1 |
